# Source: PMC3048208 (British Journal of Cancer, 2011)
# Where a name gives a salt, the structure may show the parent alone.
# Tests used:
# [1] = tested on: advanced solid tumours; experiment: Anti-tumour activity (RECIST 1.0); format: in vivo, human; settings: for Period of disease stabilisation: colorectal carcinoma patient
# Procedure: For patients with measurable disease at baseline, response was assessed using the Response and Evaluation Criteria in Solid Tumours version 1.0 ([Therasse et al, 2000]).
# [2] = tested on: patients with solid tumours; parameters: method as in Yong et al, 2008; settings: three times weekly, 3 out of 4 weeks; ref Yong et al, 2008; cited from earlier work
# [3] = parameters: method as in Novotny-Diermayr et al, 2010; settings: animal pre-clinical models; ref Novotny-Diermayr et al, 2010; cited from earlier work
compound,measurement,setting,value
"CCCCc1nc2cc(/C=C/C(=O)NO)ccc2n1CCN(CC)CC [SB939, 3-[2-butyl-1-(2-diethylaminoethyl)-1H-benzoimidazol-5-yl]-N-hydroxyacrylami-hydrochloride]",Objective tumour responses,[1]; 31 evaluable patients,No objective tumour responses
same,Period of disease stabilisation,[1]; dose level 2,8.1 months
same,Period of disease stabilisation,[1]; dose level 3,10.8 months
same,Period of disease stabilisation,[1]; dose level 4,7.4 months
same,"Disease stabilisation of >6 months, no. of patients",[1]; metastatic colorectal carcinoma,Three
same,Best response stable disease,[1]; of the 31 evaluable,32%
same,"Best response stable disease, no. of patients",[1]; of the 31 evaluable,Ten
same,Disease progression,[1]; of the 31 evaluable,68%
same,"Disease progression, no. of patients",[1]; of the 31 evaluable,21
same,Median duration of disease control,[1]; patients with SD,5.7 months
same,Range of duration of disease control,[1]; patients with SD,1.8–10.8 months
same,RPTD,[2],60 mg
same,Increase in bioavailability compared with vorinostat,[3],> 4 fold
same,Longer half-life compared with vorinostat,[3],3.3 fold
